Laboratory results from ChEMBL document CHEMBL1201862, “PubChem BioAssay data set” (2004).
Active and inactive are the calls of the source.

Key:
Format in all cases: functional
[1] = target: Apoptotic protease-activating factor 1 (Homo sapiens, UniProt O14727); test: SAR analysis of small molecule Activators of Apaf-1 in a Fluorescent assay - set 2.; conditions: read-out: EC50_Mean
[2] = SAR analysis of small molecule activators of Apaf-1 using a LZ-Caspase-9/Caspase-3 Fluorescent Selectivity assay - Set 2.; conditions: read-out: EC50_Mean
[3] = target: Melanin-concentrating hormone receptor 1 (Homo sapiens, UniProt Q99705); test: Late-stage fluorescence-based counterscreen for antagonists of the G-protein coupled receptor 7 (GPR7): cell-based dose response assay to identify antagonists of the melanin-concentrating hormone receptor 1 (MCHR1) Set 5.
Melanin-concentrating hormone receptor 1, sequence (Q99705 whole entry): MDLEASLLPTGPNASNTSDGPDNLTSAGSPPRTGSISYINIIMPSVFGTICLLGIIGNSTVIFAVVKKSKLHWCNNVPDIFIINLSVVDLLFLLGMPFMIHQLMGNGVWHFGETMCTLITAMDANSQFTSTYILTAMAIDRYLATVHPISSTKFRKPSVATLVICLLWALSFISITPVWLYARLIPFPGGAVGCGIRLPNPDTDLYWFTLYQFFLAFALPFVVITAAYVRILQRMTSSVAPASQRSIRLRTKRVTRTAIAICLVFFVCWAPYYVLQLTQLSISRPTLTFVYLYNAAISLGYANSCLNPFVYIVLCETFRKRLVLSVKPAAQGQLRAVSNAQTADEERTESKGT

[4] = target: T1, Neuropeptides B/W receptor type 1 (Homo sapiens, UniProt P48145); test: human NPBW1 receptor blockade, IC50 – cell-based, fluorescence, dose response, set 5, late-stage follow-up (AID 588566)
T1 sequence (P48145 whole entry): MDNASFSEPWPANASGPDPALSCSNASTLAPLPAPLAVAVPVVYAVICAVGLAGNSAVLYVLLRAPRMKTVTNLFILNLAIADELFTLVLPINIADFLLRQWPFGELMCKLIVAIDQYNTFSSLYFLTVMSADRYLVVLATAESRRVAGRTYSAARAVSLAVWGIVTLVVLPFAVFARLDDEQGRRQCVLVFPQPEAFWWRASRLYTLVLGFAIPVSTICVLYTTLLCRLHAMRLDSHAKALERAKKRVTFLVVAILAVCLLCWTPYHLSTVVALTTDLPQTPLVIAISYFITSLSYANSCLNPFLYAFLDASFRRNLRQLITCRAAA

Apoptotic protease-activating factor 1, sequence (O14727 whole entry): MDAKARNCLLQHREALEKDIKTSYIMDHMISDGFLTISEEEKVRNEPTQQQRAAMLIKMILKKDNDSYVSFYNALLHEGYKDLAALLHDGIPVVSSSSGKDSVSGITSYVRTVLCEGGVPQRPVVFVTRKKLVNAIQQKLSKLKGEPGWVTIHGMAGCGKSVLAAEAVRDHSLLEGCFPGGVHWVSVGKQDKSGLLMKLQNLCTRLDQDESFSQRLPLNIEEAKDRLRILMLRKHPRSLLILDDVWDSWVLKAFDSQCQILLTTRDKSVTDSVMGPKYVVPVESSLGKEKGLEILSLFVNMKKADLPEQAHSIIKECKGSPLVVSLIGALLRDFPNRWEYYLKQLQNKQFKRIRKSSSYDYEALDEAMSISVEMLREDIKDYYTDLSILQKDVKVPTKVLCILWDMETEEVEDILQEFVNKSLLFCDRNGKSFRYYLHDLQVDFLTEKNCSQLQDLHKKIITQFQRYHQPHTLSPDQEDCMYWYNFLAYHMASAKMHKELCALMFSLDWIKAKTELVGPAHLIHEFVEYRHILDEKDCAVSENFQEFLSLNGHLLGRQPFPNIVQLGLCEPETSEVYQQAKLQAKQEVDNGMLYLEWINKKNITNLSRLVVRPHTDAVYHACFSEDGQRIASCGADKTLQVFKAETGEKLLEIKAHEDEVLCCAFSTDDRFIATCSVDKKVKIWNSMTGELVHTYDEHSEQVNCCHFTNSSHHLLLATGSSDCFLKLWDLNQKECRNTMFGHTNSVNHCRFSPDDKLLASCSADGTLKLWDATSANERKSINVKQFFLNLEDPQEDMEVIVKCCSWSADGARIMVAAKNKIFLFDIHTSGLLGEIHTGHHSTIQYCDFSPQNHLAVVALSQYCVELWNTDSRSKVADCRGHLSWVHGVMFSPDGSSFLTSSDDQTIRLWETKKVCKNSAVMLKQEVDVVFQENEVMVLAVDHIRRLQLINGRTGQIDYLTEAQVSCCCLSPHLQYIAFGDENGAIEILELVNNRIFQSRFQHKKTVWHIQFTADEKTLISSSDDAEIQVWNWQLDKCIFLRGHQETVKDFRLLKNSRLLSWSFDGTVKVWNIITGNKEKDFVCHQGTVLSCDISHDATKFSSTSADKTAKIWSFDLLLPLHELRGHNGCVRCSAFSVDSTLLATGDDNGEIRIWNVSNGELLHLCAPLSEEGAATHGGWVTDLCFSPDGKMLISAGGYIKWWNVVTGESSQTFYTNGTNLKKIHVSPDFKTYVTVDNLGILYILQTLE

EC50 [1]	EC50 [2]	IC50 [3]	IC50 [4]	SMILES
94.1 µM (active)	> 100 µM (inactive)			Cc1nc2ccccc2n1CC(C)C(=O)O (centres undefined)
		> 20 µM (inactive)	~0.227 µM (active)	N#CC(c1ccccc1)c1cnn(Cc2cccc3ccccc23)c(=O)c1Br (centres undefined)
